Measured values: article PMC6352943, “Novel pyrazolo[3,4-d]pyrimidines: design, synthesis, anticancer activity, dual EGFR/ErbB2 receptor tyrosine kinases inhibitory activity, effects on cell cycle profile and caspase-3-mediated apoptosis” (Journal of Enzyme Inhibition and Medicinal Chemistry, 2019)

Experiments:
Assay in all cases: NCI 60 cell line single dose screen (SRB)
Type in all cases: cell-based
HCT-15 = details: Homo sapiens; HCT-15 (colon cancer), single dose 10^−5 M, 48 h; read-out: Growth inhibition percentage
How it was run: (§1)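 Cells were plated and grown 24 h at 37 °C, 5% CO2 before compound addition from DMSO stock, then exposed 48 h. Adherent cells were fixed with cold TCA (final 10%) and suspension cells with 16% TCA. SRB-stained protein was read at 515 nm and percent growth was calculated against time-zero and untreated plates.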

A549/ATCC = details: Homo sapiens; A549/ATCC (non-small cell lung cancer), single dose 10^−5 M, 48 h; read-out: Growth inhibition percentage
How it was run: as §1

A498 = details: Homo sapiens; A498 (renal cancer), single dose 10^−5 M, 48 h; read-out: Growth inhibition percentage
How it was run: as §1

OVCAR-8 = details: Homo sapiens; OVCAR-8 (ovarian cancer), single dose 10^−5 M, 48 h; read-out: Growth inhibition percentage
How it was run: as §1

M14 = details: Homo sapiens; M14 (melanoma), single dose 10^−5 M, 48 h; read-out: Growth inhibition percentage
How it was run: as §1

U251 = details: Homo sapiens, U-251; U251 (CNS cancer), single dose 10^−5 M, 48 h; read-out: Growth inhibition percentage
How it was run: as §1

NCI-H226 = details: Homo sapiens; NCI-H226 (non-small cell lung cancer), single dose 10^−5 M, 48 h; read-out: Growth inhibition percentage
How it was run: as §1

DU-145 = details: Homo sapiens; DU-145 (prostate cancer), single dose 10^−5 M, 48 h; read-out: Growth inhibition percentage
How it was run: as §1

HOP-62 = details: Homo sapiens; HOP-62 (non-small cell lung cancer), single dose 10^−5 M, 48 h; read-out: Growth inhibition percentage
How it was run: as §1

UACC-257 = details: Homo sapiens; UACC-257 (melanoma), single dose 10^−5 M, 48 h; read-out: Growth inhibition percentage
How it was run: as §1

HOP-92 = details: Homo sapiens; HOP-92 (non-small cell lung cancer), single dose 10^−5 M, 48 h; read-out: Growth inhibition percentage
How it was run: as §1

NCI/ADR-RES = details: Homo sapiens; NCI/ADR-RES (ovarian cancer), single dose 10^−5 M, 48 h; read-out: Growth inhibition percentage
How it was run: as §1

PC-3 = details: Homo sapiens; PC-3 (prostate cancer), single dose 10^−5 M, 48 h; read-out: Growth inhibition percentage
How it was run: as §1

BT-549 = details: Homo sapiens; BT-549 (breast cancer), single dose 10^−5 M, 48 h; read-out: Growth inhibition percentage
How it was run: as §1

LOX IMVI = details: Homo sapiens; LOX IMVI (melanoma), single dose 10^−5 M, 48 h; read-out: Growth inhibition percentage
How it was run: as §1

COLO 205 = details: Homo sapiens, COLO 205, 48 h; read-out: Growth inhibition percentage
How it was run: as §1

EKVX = details: Homo sapiens; EKVX (non-small cell lung cancer), single dose 10^−5 M, 48 h; read-out: Growth inhibition percentage
How it was run: as §1

K-562 = details: Homo sapiens, K562; K-562 (leukemia), single dose 10^−5 M, 48 h; read-out: Growth inhibition percentage
How it was run: as §1

SK-MEL-28 = details: Homo sapiens; SK-MEL-28 (melanoma), single dose 10^−5 M, 48 h; read-out: Growth inhibition percentage
How it was run: as §1

SK-MEL-2 = details: Homo sapiens; SK-MEL-2 (melanoma), single dose 10^−5 M, 48 h; read-out: Growth inhibition percentage
How it was run: as §1

HCT-116 = details: Homo sapiens; HCT-116 (colon cancer), single dose 10^−5 M, 48 h; read-out: Growth inhibition percentage
How it was run: as §1

SMILES	inhibition at 10 µM (HCT-15) [%]	inhibition at 10 µM (A549/ATCC) [%]	inhibition at 10 µM (A498) [%]	inhibition at 10 µM (OVCAR-8) [%]	inhibition at 10 µM (M14) [%]	inhibition at 10 µM (U251) [%]	inhibition at 10 µM (NCI-H226) [%]	inhibition at 10 µM (DU-145) [%]	inhibition at 10 µM (HOP-62) [%]	inhibition at 10 µM (UACC-257) [%]	inhibition at 10 µM (HOP-92) [%]	inhibition at 10 µM (NCI/ADR-RES) [%]	inhibition at 10 µM (PC-3) [%]	inhibition at 10 µM (BT-549) [%]	inhibition at 10 µM (LOX IMVI) [%]	inhibition at 10 µM (COLO 205) [%]	inhibition at 10 µM (EKVX) [%]	inhibition at 10 µM (K-562) [%]	inhibition at 10 µM (SK-MEL-28) [%]	inhibition at 10 µM (SK-MEL-2) [%]	also measured
Cc1nn(-c2ccc(F)cc2)c2ncnc(N3CCN(c4ccc(Cl)cc4)CC3)c12 [Compound 8c, 4–(4-(4-Chlorophenyl)piperazin-1-yl)-1–(4-fluorophenyl)-3-methyl-1H-pyrazolo[3,4-d]pyrimidine]	-8.49	-3.31	9.66	3.66	-0.94	-0.06	7.59	-5.88	4.05	-0.44	15.9	6.62	11.3	-4.23	4.93	-1.97	20.6	11.4	-3.74	9.37	inhibition at 10 µM (HCT-116): 1.69%
COc1ccc(N2CCN(c3ncnc4c3c(C)nn4-c3ccc(F)cc3)CC2)cc1 [Compound 8d, 1–(4-Fluorophenyl)-4–(4-(4-methoxyphenyl)piperazin-1-yl)-3-methyl-1H-pyrazolo[3,4-d]pyrimidine]	-5.55	-4.08	-0.85	1.33	3.95	-2.5	5.22	-11.2	1.51	-6.35	4.73	-3.7	12.5	2.13	0.28	-7.56	7.21	-4	-8.74	-1.69	inhibition at 10 µM (HCT-116): 7.42%
Cc1nn(-c2ccc(F)cc2)c2ncnc(NN)c12 [Compound 9, 1–(4-Fluorophenyl)-4-hydrazinyl-3-methyl-1H-pyrazolo[3,4-d]-pyrimidine]	-5.82	-5.98	1.48	1.29	-8	9.85	15.5	-0.84	4.27	-3.21	13.4	3.79	13.8	-10.8	13.3	-11.7	17	-3.06	2.1	18.3	inhibition at 10 µM (HCT-116): 3.99%
COc1cc(C=NNc2ncnc3c2c(C)nn3-c2ccc(F)cc2)ccc1O [Compound 10b, 1–(4-Fluorophenyl)-4–(2-(4-hydroxy-3-methoxybenzylidene)-hydrazinyl)-3-methyl-1H-pyrazolo[3,4-d]pyrimidine]	18.9	2.36	-3.34	3.64	-2.1	5.64	-2.3	12.4	-6.39	-14.1	39.5	4.3	27	9.63	19	-4.39	12.4	24.2	-7.04	10.2	inhibition at 10 µM (HCT-116): -4.51%
COc1cc(C=NNc2ncnc3c2c(C)nn3-c2ccc(F)cc2)cc(OC)c1OC [Compound 10c, 1–(4-Fluorophenyl)-3-methyl-4–(2-(3,4,5-trimethoxybenzylidene)-hydrazinyl)-1H-pyrazolo[3,4-d]pyrimidine]	-5.3	-0.67	22	-1.23	2.73	0.92	5.82	-4.94	0.38	0.35	40.4	-2.25	16.5	-1.06	9.33	-6.78	10	-3.02	1.3	-1.74	inhibition at 10 µM (HCT-116): 3.15%
